Measurements reported in US11382328B2, “Rapid drug discovery methods for pathogen inactivation” (priority 2019, dated 2022).

Test system: E. coli strain W3110
Assay: Synergy assays: Biolog chemical sensitivity panels with Group IB metal, coefficient of drug interaction (CDI) from relative growth
Type: cell-based
Settings: for CDI (coefficient of drug interaction), gold + biocide: Gold (μM); for CDI (coefficient of drug interaction), copper mixed with biocide: Copper (mM) section
[1] = first of 3 gold concentrations, biocide concentration 4 of 4
[2] = second of 3 gold concentrations, biocide concentration 4 of 4
[3] = third of 3 gold concentrations, biocide concentration 4 of 4
[4] = Silver 0.5 μM, biocide concentration 3 of 4
[5] = Silver 0.5 μM, biocide concentration 4 of 4
[6] = Silver 1.0 μM, biocide concentration 3 of 4
[7] = Silver 1.0 μM, biocide concentration 4 of 4
[8] = Silver 5.0 μM, biocide concentration 3 of 4
[9] = Silver 5.0 μM, biocide concentration 4 of 4
[10] = 1st of 3 copper concentrations (value not shown), 3rd of four biocide concentrations
[11] = 1st of 3 copper concentrations (value not shown), 4th of four biocide concentrations
[12] = 2nd of 3 copper concentrations (value not shown), 3rd of four biocide concentrations
[13] = 2nd of 3 copper concentrations (value not shown), 4th of four biocide concentrations
[14] = 3rd of 3 copper concentrations (value not shown), 3rd of four biocide concentrations
[15] = 3rd of 3 copper concentrations (value not shown), 4th of four biocide concentrations
[16] = Gold section of Table 5, first of three gold concentrations (μM, value not given), biocide concentration 4 of 4
[17] = Gold section of Table 5, second of three gold concentrations (μM, value not given), biocide concentration 3 of 4
[18] = Gold section of Table 5, second of three gold concentrations (μM, value not given), biocide concentration 4 of 4
[19] = Gold section of Table 5, third of three gold concentrations (μM, value not given), biocide concentration 3 of 4
[20] = Gold section of Table 5, third of three gold concentrations (μM, value not given), biocide concentration 4 of 4
[21] = Silver 0.5 μM, 2nd of four biocide concentrations, E. coli
[22] = Silver 0.5 μM, 4th of four biocide concentrations, E. coli
[23] = Silver 1.0 μM, 2nd of four biocide concentrations, E. coli
[24] = Silver 1.0 μM, 4th of four biocide concentrations, E. coli
[25] = Silver 5.0 μM, 2nd of four biocide concentrations, E. coli
[26] = Silver 5.0 μM, 4th of four biocide concentrations, E. coli

Cc1onc(-c2ccccc2)c1C(=O)N[C@@H]1C(=O)N2[C@@H]1SC(C)(C)[C@@H]2C(=O)O [oxacillin]
Tox: CDI (coefficient of drug interaction) (Copper (mM), 1st of 3 copper concentrations (head line not shown), biocide concentration 3 of 4, E. coli) | CDI (coefficient of drug interaction) (Copper (mM), 1st of 3 copper concentrations (head line not shown), biocide concentration 4 of 4, E. coli) | CDI (coefficient of drug interaction) (Copper (mM), 2nd of 3 copper concentrations (head line not shown), biocide concentration 3 of 4, E. coli) | CDI (coefficient of drug interaction) (Copper (mM), 2nd of 3 copper concentrations (head line not shown), biocide concentration 4 of 4, E. coli) | CDI (coefficient of drug interaction) (Copper (mM), 3rd of 3 copper concentrations (head line not shown), biocide concentration 3 of 4, E. coli) | CDI (coefficient of drug interaction) (Copper (mM), 3rd of 3 copper concentrations (head line not shown), biocide concentration 4 of 4, E. coli) | CDI (coefficient of drug interaction), gold + biocide [1] | CDI (coefficient of drug interaction), gold + biocide [2] | CDI (coefficient of drug interaction), gold + biocide [3] | CDI [4] | CDI [5] | CDI [6] | CDI [7] | CDI [8] | CDI [9]

O=C1C=C2C(=CCOC2O)O1 (centres unmarked) [patulin]
Tox: CDI (coefficient of drug interaction), copper mixed with biocide (1st of 3 copper concentrations (value not shown), 1st of four biocide concentrations) | CDI (coefficient of drug interaction), copper mixed with biocide (1st of 3 copper concentrations (value not shown), 2nd of four biocide concentrations) | CDI (coefficient of drug interaction), copper mixed with biocide [10] | CDI (coefficient of drug interaction), copper mixed with biocide [11] | CDI (coefficient of drug interaction), copper mixed with biocide (2nd of 3 copper concentrations (value not shown), 1st of four biocide concentrations) | CDI (coefficient of drug interaction), copper mixed with biocide (2nd of 3 copper concentrations (value not shown), 2nd of four biocide concentrations) | CDI (coefficient of drug interaction), copper mixed with biocide [12] | CDI (coefficient of drug interaction), copper mixed with biocide [13] | CDI (coefficient of drug interaction), copper mixed with biocide (3rd of 3 copper concentrations (value not shown), 1st of four biocide concentrations) | CDI (coefficient of drug interaction), copper mixed with biocide (3rd of 3 copper concentrations (value not shown), 2nd of four biocide concentrations) | CDI (coefficient of drug interaction), copper mixed with biocide [14] | CDI (coefficient of drug interaction), copper mixed with biocide [15] | CDI (coefficient of drug interaction) (Gold section of Table 5, first of three gold concentrations (μM, value not given), biocide concentration 2 of 4) | CDI (coefficient of drug interaction) (Gold section of Table 5, first of three gold concentrations (μM, value not given), biocide concentration 3 of 4) | CDI (coefficient of drug interaction) [16] | CDI (coefficient of drug interaction) (Gold section of Table 5, second of three gold concentrations (μM, value not given), biocide concentration 2 of 4) | CDI (coefficient of drug interaction) [17] | CDI (coefficient of drug interaction) [18] | CDI (coefficient of drug interaction) (Gold section of Table 5, third of three gold concentrations (μM, value not given), biocide concentration 2 of 4) | CDI (coefficient of drug interaction) [19] | CDI (coefficient of drug interaction) [20] | CDI (coefficient of drug interaction), silver + biocide [21] | CDI (coefficient of drug interaction), silver + biocide (Silver 0.5 μM, 3rd of four biocide concentrations, E. coli) | CDI (coefficient of drug interaction), silver + biocide [22] | CDI (coefficient of drug interaction), silver + biocide [23] | CDI (coefficient of drug interaction), silver + biocide (Silver 1.0 μM, 3rd of four biocide concentrations, E. coli) | CDI (coefficient of drug interaction), silver + biocide [24] | CDI (coefficient of drug interaction), silver + biocide [25] | CDI (coefficient of drug interaction), silver + biocide (Silver 5.0 μM, 3rd of four biocide concentrations, E. coli) | CDI (coefficient of drug interaction), silver + biocide [26]

CCn1cc(C(=O)O)c(=O)c2cnc(N3CCNCC3)nc21 [pipemidic acid]
Tox: CDI (coefficient of drug interaction), copper mixed with biocide [10] | CDI (coefficient of drug interaction), copper mixed with biocide [11] | CDI (coefficient of drug interaction), copper mixed with biocide [12] | CDI (coefficient of drug interaction), copper mixed with biocide [13] | CDI (coefficient of drug interaction), copper mixed with biocide [14] | CDI (coefficient of drug interaction), copper mixed with biocide [15]

CCN1CCN(C(=O)N[C@@H](C(=O)N[C@@H]2C(=O)N3[C@@H]2SC(C)(C)[C@@H]3C(=O)O)c2ccccc2)C(=O)C1=O [piperacillin]
Tox: CDI (coefficient of drug interaction), gold + biocide [1] | CDI (coefficient of drug interaction), gold + biocide [2] | CDI (coefficient of drug interaction), gold + biocide [3] | CDI [4] | CDI [5] | CDI [6] | CDI [7] | CDI [8] | CDI [9]

OC(CCN1CCCCC1)(c1ccccc1)c1ccccc1 [pridinol]
Tox: CDI (coefficient of drug interaction), copper mixed with biocide [11] | CDI (coefficient of drug interaction), copper mixed with biocide [13] | CDI (coefficient of drug interaction), copper mixed with biocide [15] | CDI (coefficient of drug interaction) [16] | CDI (coefficient of drug interaction) [17] | CDI (coefficient of drug interaction) [18] | CDI (coefficient of drug interaction) [19] | CDI (coefficient of drug interaction) [20] | CDI (coefficient of drug interaction), silver + biocide [21] | CDI (coefficient of drug interaction), silver + biocide [22] | CDI (coefficient of drug interaction), silver + biocide [23] | CDI (coefficient of drug interaction), silver + biocide [24] | CDI (coefficient of drug interaction), silver + biocide [25] | CDI (coefficient of drug interaction), silver + biocide [26]
